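Tested at 5 concentrations; 48 h exposure; 96-well plates; endpoints linearly interpolated, else capped at highest concentration. TGI denotes the concentration required for complete inhibition of growth.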
Legend:
Test in all cases: NCI tumour cell line growth inhibition, 48 h
MOLT-4 leukemia = test system: MOLT-4 leukemia
CCRF-CEM leukemia = test system: CCRF-CEM leukemia
HCT-116 colon = test system: HCT-116 colon
OVCAR-8 ovarian = test system: OVCAR-8 ovarian
HL-60(TB) leukemia = test system: HL-60(TB) leukemia
T-47D breast = test system: T-47D breast
OVCAR-5 ovarian = test system: OVCAR-5 ovarian
SW-620 colon = test system: SW-620 colon
SF-295 CNS = test system: SF-295 CNS
SNB-19 CNS = test system: SNB-19 CNS
TK-10 renal = test system: TK-10 renal
SK-MEL-5 melanoma = test system: SK-MEL-5 melanoma
SK-OV-3 ovarian = test system: SK-OV-3 ovarian
K-562 leukemia = test system: K-562 leukemia
PC-3 prostate = test system: PC-3 prostate
HT29 colon = test system: HT29 colon
MDA-MB-231 breast = test system: MDA-MB-231 breast
ACHN renal = test system: ACHN renal
M14 melanoma = test system: M14 melanoma
NCI-H460 lung = test system: NCI-H460 lung
HCC-2998 colon = test system: HCC-2998 colon
OVCAR-4 ovarian = test system: OVCAR-4 ovarian
UACC-257 melanoma = test system: UACC-257 melanoma
NCI/ADR-RES ovarian = test system: NCI/ADR-RES ovarian
RPMI-8226 leukemia = test system: RPMI-8226 leukemia
HCT-15 colon = test system: HCT-15 colon
UO-31 renal = test system: UO-31 renal
MALME-3M melanoma = test system: MALME-3M melanoma
U251 CNS = test system: U251 CNS
MDA-N = test system: MDA-N
SN12C renal = test system: SN12C renal
COLO 205 colon = test system: COLO 205 colon
CAKI-1 renal = test system: CAKI-1 renal
SF-268 CNS = test system: SF-268 CNS
SR leukemia = test system: SR leukemia
HOP-62 NSCLC = test system: HOP-62 NSCLC
DU-145 prostate = test system: DU-145 prostate
KM12 colon = test system: KM12 colon
RXF 393 renal = test system: RXF 393 renal
MDA-MB-435 = test system: MDA-MB-435
LOX IMVI melanoma = test system: LOX IMVI melanoma
SK-MEL-28 melanoma = test system: SK-MEL-28 melanoma
EKVX NSCLC = test system: EKVX NSCLC
MCF7 breast = test system: MCF7 breast
NCI-H23 lung = test system: NCI-H23 lung
786-0 renal = test system: 786-0 renal
SNB-75 CNS = test system: SNB-75 CNS
SK-MEL-2 melanoma = test system: SK-MEL-2 melanoma
BT-549 breast = test system: BT-549 breast
OVCAR-3 ovarian = test system: OVCAR-3 ovarian
UACC-62 melanoma = test system: UACC-62 melanoma
A498 renal = test system: A498 renal
IGROV1 ovarian = test system: IGROV1 ovarian
NCI-H522 lung = test system: NCI-H522 lung
A549 NSCLC = test system: A549 NSCLC
HOP-92 NSCLC = test system: HOP-92 NSCLC
SF-539 CNS = test system: SF-539 CNS

`COc1ccc2/c(=C/c3ccc(N(C)C)cc3)c3cc(-c4ccccc4)[n+](C)n3c2c1` gave a TGI (MOLT-4 leukemia) of 0.931 µM, a TGI (CCRF-CEM leukemia) of 5.37 µM and a TGI (HCT-116 colon) of 1.37 µM. It also gave a TGI (OVCAR-8 ovarian) of 0.731 µM, a TGI (HL-60(TB) leukemia) of 0.106 µM and a TGI (T-47D breast) of 2.77 µM. For the same molecule, the TGI (OVCAR-5 ovarian) was 1.44 µM, the TGI (SW-620 colon) was 1.47 µM and the TGI (SF-295 CNS) was 2.51 µM. For the same molecule, the TGI (SNB-19 CNS) was 2.2 µM, the TGI (TK-10 renal) was 1.43 µM and the TGI (SK-MEL-5 melanoma) was 0.292 µM. For the same molecule, the TGI (SK-OV-3 ovarian) was 1.68 µM, the TGI (K-562 leukemia) was 1.15 µM and the TGI (PC-3 prostate) was 0.543 µM. The TGI (HT29 colon) was 0.624 µM, the TGI (MDA-MB-231 breast) was 1.66 µM and the TGI (ACHN renal) was 2.39 µM. The TGI (M14 melanoma) was 1.16 µM, the TGI (NCI-H460 lung) was 3.56 µM and the TGI (HCC-2998 colon) was 1.08 µM. For the same molecule, the TGI (OVCAR-4 ovarian) was 4.19 µM, the TGI (UACC-257 melanoma) was 0.888 µM and the TGI (NCI/ADR-RES ovarian) was over 100 µM. It also gave a TGI (RPMI-8226 leukemia) of 0.912 µM, a TGI (HCT-15 colon) of 3.28 µM and a TGI (UO-31 renal) of 5.2 µM. The TGI (MALME-3M melanoma) was 0.579 µM, the TGI (U251 CNS) was 1.27 µM and the TGI (MDA-N) was 0.475 µM. For the same molecule, the TGI (SN12C renal) was 1.6 µM, the TGI (COLO 205 colon) was 0.236 µM and the TGI (CAKI-1 renal) was 7.77 µM. It also gave a TGI (SF-268 CNS) of 1.19 µM, a TGI (SR leukemia) of 0.962 µM and a TGI (HOP-62 NSCLC) of 2.63 µM. It also gave a TGI (DU-145 prostate) of 1.77 µM and a TGI (KM12 colon) of 1.99 µM.

`COc1ccc(-c2nc(SCC(=O)NNC(=S)Nc3ccccc3)[nH]c2-c2ccc(OC)cc2)cc1` was tested, and the TGI (MOLT-4 leukemia) was 25.3 µM, the TGI (CCRF-CEM leukemia) was over 100 µM and the TGI (HCT-116 colon) was 78 µM. It also gave a TGI (RXF 393 renal) of 43.9 µM, a TGI (OVCAR-8 ovarian) of over 100 µM and a TGI (HL-60(TB) leukemia) of 29.9 µM. It also gave a TGI (MDA-MB-435) of 46.7 µM, a TGI (T-47D breast) of 85 µM and a TGI (LOX IMVI melanoma) of 37.9 µM. The TGI (OVCAR-5 ovarian) was 49 µM, the TGI (SW-620 colon) was 91.2 µM and the TGI (SK-MEL-28 melanoma) was 66.8 µM. For the same molecule, the TGI (EKVX NSCLC) was 75.9 µM, the TGI (SF-295 CNS) was 39.8 µM and the TGI (SNB-19 CNS) was 43.2 µM. It also gave a TGI (MCF7 breast) of 47.5 µM, a TGI (TK-10 renal) of over 100 µM and a TGI (SK-MEL-5 melanoma) of 28.4 µM. The TGI (SK-OV-3 ovarian) was over 100 µM, the TGI (K-562 leukemia) was over 100 µM and the TGI (NCI-H23 lung) was 39.3 µM. For the same molecule, the TGI (PC-3 prostate) was 73.7 µM, the TGI (HT29 colon) was over 100 µM and the TGI (786-0 renal) was 60.7 µM. The TGI (MDA-MB-231 breast) was 95.4 µM, the TGI (ACHN renal) was 64.2 µM and the TGI (M14 melanoma) was 34.6 µM. The TGI (SNB-75 CNS) was over 100 µM, the TGI (NCI-H460 lung) was 32.2 µM and the TGI (HCC-2998 colon) was 29.3 µM. The TGI (OVCAR-4 ovarian) was over 100 µM, the TGI (UACC-257 melanoma) was 44.1 µM and the TGI (NCI/ADR-RES ovarian) was over 100 µM. It also gave a TGI (SK-MEL-2 melanoma) of 34.7 µM, a TGI (BT-549 breast) of 57 µM and a TGI (HCT-15 colon) of 52 µM. The TGI (OVCAR-3 ovarian) was 34.5 µM, the TGI (UACC-62 melanoma) was 30.6 µM and the TGI (UO-31 renal) was over 100 µM. It also gave a TGI (MALME-3M melanoma) of over 100 µM, a TGI (A498 renal) of 47.9 µM and a TGI (U251 CNS) of 32 µM. It also gave a TGI (IGROV1 ovarian) of over 100 µM, a TGI (MDA-N) of 50.3 µM and a TGI (SN12C renal) of 50.8 µM. For the same molecule, the TGI (COLO 205 colon) was 30.4 µM, the TGI (CAKI-1 renal) was over 100 µM and the TGI (SF-268 CNS) was 59.8 µM. The TGI (NCI-H522 lung) was 42.4 µM, the TGI (A549 NSCLC) was over 100 µM and the TGI (HOP-92 NSCLC) was 44.9 µM. For the same molecule, the TGI (HOP-62 NSCLC) was 46.1 µM, the TGI (SF-539 CNS) was 30.9 µM and the TGI (DU-145 prostate) was over 100 µM. For the same molecule, the TGI (KM12 colon) was 85.9 µM.

`CC1OC(c2ccc3c(OCc4ccccc4)cccc3c2O)CC(OCc2ccccc2)[C@H]1OCc1ccccc1` (stereo partly specified) showed a TGI (MOLT-4 leukemia) of over 10 µM, a TGI (CCRF-CEM leukemia) of over 10 µM and a TGI (RXF 393 renal) of over 10 µM. It also gave a TGI (OVCAR-8 ovarian) of over 10 µM, a TGI (HL-60(TB) leukemia) of over 10 µM and a TGI (T-47D breast) of over 10 µM. The TGI (SW-620 colon) was over 10 µM, the TGI (SK-MEL-28 melanoma) was over 10 µM and the TGI (EKVX NSCLC) was over 10 µM. The TGI (SF-295 CNS) was over 10 µM, the TGI (MCF7 breast) was over 10 µM and the TGI (TK-10 renal) was over 10 µM. The TGI (SK-MEL-5 melanoma) was over 10 µM, the TGI (SK-OV-3 ovarian) was over 10 µM and the TGI (K-562 leukemia) was over 10 µM. For the same molecule, the TGI (NCI-H23 lung) was over 10 µM, the TGI (PC-3 prostate) was over 10 µM and the TGI (HT29 colon) was over 10 µM. For the same molecule, the TGI (786-0 renal) was over 10 µM, the TGI (MDA-MB-231 breast) was over 10 µM and the TGI (M14 melanoma) was over 10 µM. The TGI (SNB-75 CNS) was over 10 µM, the TGI (HCC-2998 colon) was over 10 µM and the TGI (UACC-257 melanoma) was over 10 µM. The TGI (RPMI-8226 leukemia) was over 10 µM, the TGI (HCT-15 colon) was over 10 µM and the TGI (UACC-62 melanoma) was over 10 µM. It also gave a TGI (MALME-3M melanoma) of over 10 µM, a TGI (IGROV1 ovarian) of over 10 µM and a TGI (MDA-N) of over 10 µM. For the same molecule, the TGI (SN12C renal) was over 10 µM, the TGI (COLO 205 colon) was over 10 µM and the TGI (CAKI-1 renal) was over 10 µM. It also gave a TGI (SF-268 CNS) of over 10 µM, a TGI (A549 NSCLC) of over 10 µM and a TGI (HOP-62 NSCLC) of over 10 µM. For the same molecule, the TGI (DU-145 prostate) was over 10 µM and the TGI (KM12 colon) was over 10 µM.

Reference: PubChem BioAssay (NCI)
